target: T1, BRD4 bromodomains (Homo sapiens, UniProt O60885); assay: BROMOscan bromodomain competition binding assay (DiscoveRx); conditions: Kd from 11 compound concentrations ranging from 0 to 10 μM, read-out: BROMOscan Relative Activity
T1 construct: fused on or other part: T7 phage capsid protein (phage-display fusion; the phage DNA is read out by qPCR)
Protocol: Bromodomain assays were conducted to measure interactions between certain compounds and bromodomains.
The assays were conducted according to BROMOscan protocol from Discover Rx. Briefly, BRD4 bromodomains expressed as a fusion capsid protein of T7 phage were bound to acetylated peptide ligand on a solid phase and competition bindings were performed. T7 phage strains displaying bromodomains were grown in parallel in 24-well blocks in an E. coli host derived from the BL21 strain. E. coli were grown to log-phase and infected with T7 phage from a frozen stock (multiplicity of infection=0.4) and incubated with shaking at 32° C. until lysis (90-150 minutes). The lysates were centrifuged (5,000×g) and filtered (0.2 μm) to remove cell debris. […] The liganded beads were blocked with excess biotin and washed with blocking buffer (SeaBlock (Pierce), 1% BSA, 0.05% Tween 20, 1 mM DTT) to remove unbound ligand and to reduce non-specific phage binding. […] Test compounds were prepared as 1000× stocks in 100% DMSO and subsequently diluted 1:10 in monoethylene glycol (MEG) to create stocks at 100× the screening concentration (resulting stock solution is 10% DMSO/90% MEG). The compounds were then diluted directly into the assays such that the final concentration of DMSO and MEG were 0.1% and 0.9%, respectively. All reactions were performed in polystyrene 96-well plates in a final volume of 0.135 ml. […] The bromodomain concentration in the eluates was measured by qPCR. Data was collected at 11 compound concentrations ranging from 0 to 10 μM. Kd values were then derived from a standard dose-response curve generated with Hill equation (Hill Slope was set to ˜1) and a non-linear least square fit with the Levenberg-Marquardt algorithm. Response=Background+Signal−Background/1+(Kd Hill Slope/Dose Hill Slope)

| SMILES | Kd [nM] |
| --- | --- |
| Cc1noc(C)c1-c1ccc2nc(N3CCN(CCN(C)C)CC3)nc(NCc3ccccc3)c2c1 [Example 92, N-benzyl-2-(4-(2-(dimethylamino)ethyl)piperazin-1-yl)-6-(3,5-dimethylisoxazol-4-yl)quinazolin-4-amine] | < 500 |
| Cc1noc(C)c1-c1ccc2nc(-c3cnn(CCN(C)C)c3)nc(NCc3cccc(Cl)c3)c2c1 [Example 60, N-(3-chlorobenzyl)-2-(1-(2-(dimethylamino)ethyl)-1H-pyrazol-4-yl)-6-(3,5-dimethylisoxazol-4-yl)quinazolin-4-amine] | < 500 |
| Cn1cc(-c2ccc3nc(N4CCN(C(=O)CN)CC4)nc(NCc4cncc(Cl)c4)c3c2)ccc1=O [Example 133, 5-(2-(4-(2-aminoacetyl)piperazin-1-yl)-4-(((5-chloropyridin-3-yl)methyl)amino)quinazolin-6-yl)-1-methylpyridin-2(1H)-one] | < 500 |
| Cc1noc(C)c1-c1ccc2nc(-c3csc(CO)c3)nc(N3CCOC[C@@H]3c3ccccc3)c2c1 [Example 325, (S)-(4-(6-(3,5-dimethylisoxazol-4-yl)-4-(3-phenylmorpholino)quinazolin-2-yl)thiophen-2-yl)methanol] | 500 to 5000 |
| Cc1noc(C)c1-c1ccc2nc(Oc3ccc(Cl)cc3)nc(NCc3cccc(Cl)c3)c2c1 [Example 169, N-(3-chlorobenzyl)-2-(4-chlorophenoxy)-6-(3,5-dimethylisoxazol-4-yl)quinazolin-4-amine] | > 5000 |
| Cc1noc(C)c1-c1ccc2nc(N3CCN(C(=O)CO)CC3)nc(NCc3cncc(Cl)c3)c2c1 [Example 132, 1-(4-(4-(((5-chloropyridin-3-yl)methyl)amino)-6-(3,5-dimethylisoxazol-4-yl)quinazolin-2-yl)piperazin-1-yl)-2-hydroxyethanone] | < 500 |
| Cc1ccc(NC(=O)c2nc(NCc3cccc(Cl)c3)c3cc(-c4c(C)noc4C)ccc3n2)cn1 [Example 219, 4-((3-chlorobenzyl)amino)-6-(3,5-dimethylisoxazol-4-yl)-N-(6-methylpyridin-3-yl)quinazoline-2-carboxamide] | 500 to 5000 |
| Cc1noc(C)c1-c1ccc2nc(N3CCN(CCN(C)C)CC3)nc(NCCc3ccc(Cl)cc3)c2c1 [Example 160, N-(4-chlorophenethyl)-2-(4-(2-(dimethylamino)ethyl)piperazin-1-yl)-6-(3,5-dimethylisoxazol-4-yl)quinazolin-4-amine] | 500 to 5000 |
| Cn1cc(-c2ccc3nc(N4CCN(CC(C)(C)O)CC4)nc(NCc4cccc(Cl)c4)c3c2)ccc1=O [Example 134, 5-(4-((3-chlorobenzyl)amino)-2-(4-(2-hydroxy-2-methylpropyl)piperazin-1-yl)quinazolin-6-yl)-1-methylpyridin-2(1H)-one] | < 500 |
| CC(=O)N1CCC(n2cc(-c3nc(N4CCOC[C@@H]4c4ccccc4)c4cc(-c5c(C)noc5C)ccc4n3)cn2)CC1 [Example 327, (S)-1-(4-(4-(6-(3,5-dimethylisoxazol-4-yl)-4-(3-phenylmorpholino)quinazolin-2-yl)-1H-pyrazol-1-yl)piperidin-1-yl)ethan-1-one] | < 500 |
| Cn1cc(-c2ccc3nc(N4CCN(CC(N)=O)CC4)nc(NCc4cncc(Cl)c4)c3c2)ccc1=O [Example 127, 2-(4-(4-(((5-chloropyridin-3-yl)methyl)amino)-6-(1-methyl-6-oxo-1,6-dihydropyridin-3-yl)quinazolin-2-yl)piperazin-1-yl)acetamide] | < 500 |
| Cc1noc(C)c1-c1ccc2nc(-c3c(C)noc3C)nc(NCc3cccc(Cl)c3)c2c1 [Example 70, N-(3-chlorobenzyl)-2,6-bis(3,5-dimethylisoxazol-4-yl)quinazolin-4-amine] | 500 to 5000 |
| Cc1noc(C)c1-c1ccc2nc(N3CCN(CC(=O)N(C)C)CC3)nc(NCc3cncc(Cl)c3)c2c1 [Example 119, 2-(4-(4-(((5-chloropyridin-3-yl)methyl)amino)-6-(3,5-dimethylisoxazol-4-yl)quinazolin-2-yl)piperazin-1-yl)-N,N-dimethylacetamide] | < 500 |
| CNC(=O)Cn1cc(-c2nc(NCc3cncc(Cl)c3)c3cc(-c4ccc(=O)n(C)c4)ccc3n2)cn1 [Example 147, 2-(4-(4-(((5-chloropyridin-3-yl)methyl)amino)-6-(1-methyl-6-oxo-1,6-dihydropyridin-3-yl)quinazolin-2-yl)-1H-pyrazol-1-yl)-N-methylacetamide] | < 500 |
| Cc1noc(C)c1-c1ccc2nc(C(=O)NC3CCN(C)CC3)cc(NCc3cccc(Cl)c3)c2c1 [Example 228, 4-((3-chlorobenzyl)amino)-6-(3,5-dimethylisoxazol-4-yl)-N-(1-methylpiperidin-4-yl)quinoline-2-carboxamide] | < 500 |
| Cc1noc(C)c1-c1ccc2nc(-c3cnn(CC(=O)N(C)C)c3)nc(NCc3cccc(Cl)c3)c2c1 [Example 98, 2-(4-(4-((3-chlorobenzyl)amino)-6-(3,5-dimethylisoxazol-4-yl)quinazolin-2-yl)-1H-pyrazol-1-yl)-N,N-dimethylacetamide] | < 500 |
| Cc1noc(C)c1-c1ccc2nc(N3CCN(CCN(C)C)CC3)nc(NCc3ccc(Cl)s3)c2c1 [Example 94, N-((5-chlorothiophen-2-yl)methyl)-2-(4-(2-(dimethylamino)ethyl)piperazin-1-yl)-6-(3,5-dimethylisoxazol-4-yl)quinazolin-4-amine] | < 500 |
| Cc1noc(C)c1-c1ccc2ncnc(N3CCOCC3c3ccccc3)c2c1 (centres unmarked) [Example 264, 4-(6-(3,5-dimethylisoxazol-4-yl)quinazolin-4-yl)-3-phenylmorpholine] | < 500 |
| Cc1noc(C)c1-c1ccc2nc(C(=O)Nc3cncc(F)c3)nc(NCc3cccc(Cl)c3)c2c1 [Example 221, 4-((3-chlorobenzyl)amino)-6-(3,5-dimethylisoxazol-4-yl)-N-(5-fluoropyridin-3-yl)quinazoline-2-carboxamide] | 500 to 5000 |
| Cn1cc(-c2ccc3nc(N4CCN(C(=O)CN)CC4)nc(NCc4cccc(Cl)c4)c3c2)ccc1=O [Example 107, 5-(2-(4-(2-aminoacetyl)piperazin-1-yl)-4-((3-chlorobenzyl)amino)quinazolin-6-yl)-1-methylpyridin-2(1H)-one] | < 500 |
| Cc1noc(C)c1-c1ccc2nc(C(=O)NC3CCOCC3)nc(NCc3cncc(Cl)c3)c2c1 [Example 229, 4-(((5-chloropyridin-3-yl)methyl)amino)-6-(3,5-dimethylisoxazol-4-yl)-N-(tetrahydro-2H-pyran-4-yl)quinazoline-2-carboxamide] | < 500 |
| CNC(=O)C1CCN(c2nc(N3CCN(CCN(C)C)CC3)nc3ccc(-c4c(C)noc4C)cc23)CC1 [Example 267, 1-(2-(4-(2-(dimethylamino)ethyl)piperazin-1-yl)-6-(3,5-dimethylisoxazol-4-yl)quinazolin-4-yl)-N-methylpiperidine-4-carboxamide] | < 500 |
| Cn1cc(-c2ccc3nc(N4CCN(CCO)CC4)nc(NCc4cccc(Cl)c4)c3c2)ccc1=O [Example 121, 5-(4-((3-chlorobenzyl)amino)-2-(4-(2-hydroxyethyl)piperazin-1-yl)quinazolin-6-yl)-1-methylpyridin-2(1H)-one] | < 500 |
| Cc1noc(C)c1-c1ccc2nc(Cl)nc(Nc3ccc(Cl)cc3)c2c1 [Example 151, 2-chloro-N-(4-chlorophenyl)-6-(3,5-dimethylisoxazol-4-yl)quinazolin-4-amine] | > 5000 |
| Cc1noc(C)c1-c1ccc2nc(N3CCC4(CCC(=O)N4C)CC3)nc(N3CCOC[C@@H]3c3ccccc3)c2c1 [Example 330, (S)-8-(6-(3,5-dimethylisoxazol-4-yl)-4-(3-phenylmorpholino)quinazolin-2-yl)-1-methyl-1,8-diazaspiro[4.5]decan-2-one] | < 500 |
| Cc1noc(C)c1-c1ccc2nc(C(=O)NCC3CN(C)C3)nc(N3CCOC[C@@H]3c3ccccc3)c2c1 [Example 283, (S)-6-(3,5-dimethylisoxazol-4-yl)-N-((1-methylazetidin-3-yl)methyl)-4-(3-phenylmorpholino)quinazoline-2-carboxamide] | < 500 |
| Cc1noc(C)c1-c1ccc2nc(C(=O)NC3CCOCC3)nc(NCc3cccc(Cl)c3)c2c1 [Example 226, 4-((3-chlorobenzyl)amino)-6-(3,5-dimethylisoxazol-4-yl)-N-(tetrahydro-2H-pyran-4-yl)quinazoline-2-carboxamide] | < 500 |
| Cc1nn(C)cc1CNC(=O)c1nc(NCc2cncc(Cl)c2)c2cc(-c3c(C)noc3C)ccc2n1 [Example 238, 4-(((5-chloropyridin-3-yl)methyl)amino)-N-((1,3-dimethyl-1H-pyrazol-4-yl)methyl)-6-(3,5-dimethylisoxazol-4-yl)quinazoline-2-carboxamide] | < 500 |
| Cc1noc(C)c1-c1ccc2nc(-c3cnn(CCN4CCOCC4)c3)nc(NCc3cccc(Cl)c3)c2c1 [Example 28, N-(3-chlorobenzyl)-6-(3,5-dimethylisoxazol-4-yl)-2-(1-(2-morpholinoethyl)-1H-pyrazol-4-yl)quinazolin-4-amine] | < 500 |
